Values of other authors, collected in patent US20030111427A1, “Composition for controlling the dissolving rate of solid sanitizers” (Arch Chemicals, Inc., priority 2001, published 2003).

Details: at 30° C.

## [Ca+2].[O-]Cl.[O-]Cl [calcium hypochlorite]
21.6 grams in 100 grams of water
  time for all of the calcium hypochlorite to dissolve: less than 5 minutes
In 100 grams of water
  amount that dissolves in 100 grams of water: about 21.6 grams
